From publication PMC8584173, “The Cytotoxic Effect of Copper (II) Complexes with Halogenated 1,3-Disubstituted Arylthioureas on Cancer and Bacterial Cells” (International Journal of Molecular Sciences, 2021)

Tests used:
[1] = tested on: hospital S. aureus (MRSA); assay: MIC, hospital S. aureus; assay type: cell-based, Staphylococcus aureus; conditions: clinical S. aureus rods (six for 1–4, 7, 8)
Experimental: (§1) The antimicrobial activity of the compounds was tested on Gram-positive bacteria (Staphylococcus aureus NCTC 4163, Staphylococcus aureus ATCC 25923, Staphylococcus aureus ATCC 6538, Staphylococcus aureus ATCC 29213, Staphylococcus epidermidis ATCC 12228, Staphylococcus epidermidis ATCC 35984), Gram-negative rods (Escherichia coli ATCC 10538, Escherichia coli ATCC 25922, Pseudomonas aeruginosa ATCC 15442, Pseudomonas aeruginosa ATCC 27863) and yeasts (Candida albicans ATCC 10231, Candida albicans ATCC 90028, Candida parapsilosis ATCC 22019). Hospital methicillin-resistant strains of Staphylococcus aureus and Staphylococcus epidermidis were obtained from the collection of the Department of Pharmaceutical Microbiology, Medical University of Warsaw, Poland.
(§2) Antifungal activities were assessed using Mueller–Hinton agar + 2% glucose and 0.5 µg/mL methylene blue dye medium. Sterile filter paper discs (9 mm diameter, Whatman Number 3 chromatography paper) were dripped with tested compound solutions (in dimethylsulfoxide, DMSO) to load 400 μg of a given compound per disc. Dry discs were placed on the surface of appropriate agar medium. The results (diameter of the growth inhibition zone) were read after 18 h of incubation at 35 °C. Minimal inhibitory concentration (MIC) was tested by the twofold serial microdilution method (in 96-well microtiter plates) using Mueller–Hinton broth medium (Beckton Dickinson) for bacteria or RPMI-1640 medium for Candida species, according to CLSI guidelines. The stock solution of tested agent was prepared in DMSO and diluted in sterile water. […] The final inoculum of all studied microorganisms was 10^5 CFU/ mL^−1 (colony forming units per ml). Minimal inhibitory concentrations (the lowest concentration of a tested agent that prevents visible growth of a microorganism) were read after 18 h (bacteria) or 24 h (yeasts) of incubation at 35 °C.

[2] = tested on: Candida species; assay: MIC, Candida species; assay type: cell-based; conditions: studied Candida species
Experimental: as §1, §2

[3] = tested on: standard staphylococci; assay: MIC, standard staphylococci; assay type: cell-based, Staphylococcus; conditions: standard staphylococci / S. aureus isolates
Experimental: as §1, §2

[4] = tested on: clinical methicillin-resistant strains of S. aureus (MRSA) and S. epidermidis (MRSE); assay: MIC, clinical strains; assay type: cell-based, Staphylococcus
Experimental: as §1, §2

[5] = tested on: Thioredoxin-dependent peroxide reductase, mitochondrial (PRDX3_HUMAN); assay: LC–MS proteome analysis, PRDX3; assay type: cell-based, Homo sapiens; conditions: IC50 concentration, % of control
Experimental: (§3) Enzymes involved in oxidoreductive potential were analyzed in the cell lysates obtained after treatment cells with selected conjugates for 24 h. Cells were washed with phosphate-buffered saline (PBS) and harvested, then centrifuged at 1000× g for 10 min. Then, lysis buffer (containing protease inhibitor, 1% RIPA Lysis and Extraction Buffer (ThermoFisher)) and cold PBS were added, and samples were sonicated three times in ice bath. Next, the cell lysates were centrifuged at 14,000× g at 4 °C for 15 min, and then supernatants were stored at […] before use. Protein concentration was measured by the Bradford method.
(§4) Normalized protein concentrations (5 µg) from cell lysate were precipitated by ice cold (–20 °C) acetonitrile (ACN, Merck, in ratio 1:4). Then, samples were centrifuged (–9 °C, 30 min., 18,000× g), the supernatant was discarded and ACN excess was evaporated using a vacuum centrifuge (5 min., room temp.). Protein pellet was dissolved in 40 mM ammonium bicarbonate. An amount of 500 mM dithiothreitol (DTT, with final concentration 20 mM) and 1 M iodoacetamide (IAA, with final concentration 40 mM) were used for reduction and alkylation processes. After 16 h of incubation in 37 °C with Trypsin Gold (Promega), digested protein samples were diluted with 0.1% formic acid (ThermoFisher) and centrifuged (+2 °C, 30 min, 18,000× g).
(§5) LC–MS analysis was carried out with the use of nanoUHPLC (nanoElute, Bruker) coupled by CaptiveSpray (Bruker) to ESI-Q-TOF mass spectrometer (Compact, Bruker). Two-column separation method was used, i.e., pre-column (300 µm × 5 mm, C18 PepMap 100, 5 µm, 100Å, Thermo Scientific) and Aurora separation column with CSI fitting (75 µm × 250 mm, C18 1.6 µm) in gradient 2% B to 35% B in 90 min with the 300 nL/min flow rate. Mobile phases (A) 0.1% formic acid in water and (B) 0.1% formic acid in ACN were used.
(§6) Sample ionizations were performed at a gas flow of 3.0 L/min, temperature of 150 °C and voltage of the capillary at 1600 V. The quadrupole energy was fixed to 5.0 eV and collision chamber energy 7.0 eV, with an ion transfer time of 90 µs. The ions were analyzed in the positive polarity mode in the range 150–2200 m/z, with the acquisition frequency of the 1 Hz spectrum, as well as with the autoMS/MS system.
(§7) The collected spectra were analyzed and calibrated using DataAnalysis software (Bruker) and then identified in ProteinScape (Bruker) by the MASCOT server. Protein identification was conducted using the online SwissProt and NCBIprot databases, and their references and biological significance were identified using Reactome.org, String.org and KEGG.

[6] = tested on: Glutathione S-transferase P (GSTP1_HUMAN); assay: LC–MS proteome analysis, GSTP1; assay type: cell-based, Homo sapiens; conditions: IC50 concentration, % of control
Experimental: as §3, §4, §5, §6, §7

[7] = tested on: Peroxiredoxin-1 (PRDX1_HUMAN); assay: LC–MS proteome analysis, PRDX1; assay type: cell-based, Homo sapiens; conditions: IC50 concentration, % of control
Experimental: as §3, §4, §5, §6, §7

[8] = tested on: Superoxide dismutase [Cu-Zn] (SODC_HUMAN); assay: LC–MS proteome analysis, SODC; assay type: cell-based, Homo sapiens; conditions: for Protein Intensity, % (SODC): IC50 concentration, % of control
Experimental: as §3, §4, §5, §6, §7

[9] = tested on: Glutathione S-transferase A1 (GSTA1_HUMAN); assay: LC–MS proteome analysis, GSTA1; assay type: cell-based, Homo sapiens; conditions: IC50 concentration, % of control
Experimental: as §3, §4, §5, §6, §7

[10] = tested on: Superoxide dismutase [Mn], mitochondrial (SODM_HUMAN); assay: LC–MS proteome analysis, SODM; assay type: cell-based, Homo sapiens; conditions: IC50 concentration, % of control
Experimental: as §3, §4, §5, §6, §7

[11] = tested on: Glutathione S-transferase omega-1 (GSTO1_HUMAN); assay: LC–MS proteome analysis, GSTO1; assay type: cell-based, Homo sapiens; conditions: IC50 concentration, % of control
Experimental: as §3, §4, §5, §6, §7

[12] = tested on: Peroxiredoxin-6 (PRDX6_HUMAN); assay: LC–MS proteome analysis, PRDX6; assay type: cell-based, Homo sapiens; conditions: IC50 concentration, % of control
Experimental: as §3, §4, §5, §6, §7

[13] = tested on: Glutathione reductase, mitochondrial (GSHR_HUMAN); assay: LC–MS proteome analysis, GSHR; assay type: cell-based, Homo sapiens; conditions: IC50 concentration, % of control
Experimental: as §3, §4, §5, §6, §7

`O=[N+]([O-])c1cc(NC2=[N+](c3ccc(Cl)c([N+](=O)[O-])c3)[Cu-2]3([S]2)[S]C(Nc2ccc(Cl)c([N+](=O)[O-])c2)=[N+]3c2ccc(Cl)c([N+](=O)[O-])c2)ccc1Cl` [Compound 6, Copper (II) complex with 1,3-bis(4-chloro-3-nitrophenyl)thiourea] was tested, and the “times stronger / more potent than ciprofloxacin” value [1] was 4–16 times and the growth inhibitory dose [2] was 64 µg/mL.

`O=[N+]([O-])c1cc([N+]2=C(Nc3ccc(F)c(Cl)c3)[S][Cu-2]23[S]C(Nc2ccc(F)c(Cl)c2)=[N+]3c2ccc(Cl)c([N+](=O)[O-])c2)ccc1Cl` [Compound 4, Copper (II) complex with 1-(3-chloro-4-fluorophenyl)-3-(4-chloro-3-nitrophenyl)thiourea] gave an MIC [3] of 4 µg/mL and an MIC [4] of 4 to 8 µg/mL.

For `O=[N+]([O-])c1cc([N+]2=C(Nc3ccccc3F)[S][Cu-2]23[S]C(Nc2ccccc2F)=[N+]3c2ccc(Cl)c([N+](=O)[O-])c2)ccc1Cl` [Compound 7, Copper (II) complex with 1-(2-fluorophenyl)-3-(4-chloro-3-nitrophenyl)thiourea], the “Protein Intensity, % (PRDX3)” value ([5]; PC3, 24 h) was 12.4%, the “Protein Intensity, % (PRDX3)” value ([5]; SW480, 24 h) was 90.4% and the “Protein Intensity, % (PRDX3)” value ([5]; SW620, 24 h) was 61.2%. For the same compound, the “Protein Intensity, % (GSTP1)” value ([6]; PC3, 24 h) was 35.8%, the “Protein Intensity, % (GSTP1)” value ([6]; SW480, 24 h) was 80.9% and the “Protein Intensity, % (GSTP1)” value ([6]; SW620, 24 h) was 67.3%. The “Protein Intensity, % (PRDX1)” value ([7]; PC3, 24 h) was 46.5%, the “Protein Intensity, % (PRDX1)” value ([7]; SW480, 24 h) was 71.6% and the “Protein Intensity, % (PRDX1)” value ([7]; SW620, 24 h) was 83.2%. The “Protein Intensity, % (SODC)” value ([8]; PC3, 24 h) was 15.4%, the “Protein Intensity, % (SODC)” value ([8]; SW480, 24 h) was 40.6% and the “reduction of SODC intensity” value ([8]; SW480, IC50 concentration) was 59.4%. For the same compound, the “Protein Intensity, % (SODC)” value ([8]; SW620, 24 h) was 44.7%, the “Protein Intensity, % (GSTA1)” value ([9]; PC3, 24 h) was 79.2% and the “Protein Intensity, % (GSTA1)” value ([9]; SW480, 24 h) was 75.6%. For the same compound, the “Protein Intensity, % (GSTA1)” value ([9]; SW620, 24 h) was 36.4%, the “Protein Intensity, % (SODM)” value ([10]; PC3, 24 h) was 25.2% and the “Protein Intensity, % (SODM)” value ([10]; SW480, 24 h) was 65.1%. The “Protein Intensity, % (SODM)” value ([10]; SW620, 24 h) was 45.3%, the MIC [3] was 16 to 32 µg/mL and the “Protein Intensity, % (GSTO1)” value ([11]; PC3, 24 h) was 68.6%. For the same compound, the “Protein Intensity, % (GSTO1)” value ([11]; SW480, 24 h) was 45.1%, the “Protein Intensity, % (GSTO1)” value ([11]; SW620, 24 h) was 52.5% and the MIC [4] was 4 to 8 µg/mL. For the same compound, the “Protein Intensity, % (PRDX6)” value ([12]; PC3, 24 h) was 35.0%, the “Protein Intensity, % (PRDX6)” value ([12]; SW480, 24 h) was 68.3% and the “Protein Intensity, % (PRDX6)” value ([12]; SW620, 24 h) was 67.5%. For the same compound, the “Protein Intensity, % (GSHR)” value ([13]; PC3, 24 h) was 61.2%, the “Protein Intensity, % (GSHR)” value ([13]; SW480, 24 h) was 91.7% and the “Protein Intensity, % (GSHR)” value ([13]; SW620, 24 h) was 67.3%.
